Source: the Kinase Knowledgebase extract (Sharma et al. 2016)

Molecular target: ROCK2 (human) (UniProt O75116)
Experiment: Inhibition of ROCK2 Kinase Activity

Chain of ROCK2 (human) (O75116 whole entry, looked up): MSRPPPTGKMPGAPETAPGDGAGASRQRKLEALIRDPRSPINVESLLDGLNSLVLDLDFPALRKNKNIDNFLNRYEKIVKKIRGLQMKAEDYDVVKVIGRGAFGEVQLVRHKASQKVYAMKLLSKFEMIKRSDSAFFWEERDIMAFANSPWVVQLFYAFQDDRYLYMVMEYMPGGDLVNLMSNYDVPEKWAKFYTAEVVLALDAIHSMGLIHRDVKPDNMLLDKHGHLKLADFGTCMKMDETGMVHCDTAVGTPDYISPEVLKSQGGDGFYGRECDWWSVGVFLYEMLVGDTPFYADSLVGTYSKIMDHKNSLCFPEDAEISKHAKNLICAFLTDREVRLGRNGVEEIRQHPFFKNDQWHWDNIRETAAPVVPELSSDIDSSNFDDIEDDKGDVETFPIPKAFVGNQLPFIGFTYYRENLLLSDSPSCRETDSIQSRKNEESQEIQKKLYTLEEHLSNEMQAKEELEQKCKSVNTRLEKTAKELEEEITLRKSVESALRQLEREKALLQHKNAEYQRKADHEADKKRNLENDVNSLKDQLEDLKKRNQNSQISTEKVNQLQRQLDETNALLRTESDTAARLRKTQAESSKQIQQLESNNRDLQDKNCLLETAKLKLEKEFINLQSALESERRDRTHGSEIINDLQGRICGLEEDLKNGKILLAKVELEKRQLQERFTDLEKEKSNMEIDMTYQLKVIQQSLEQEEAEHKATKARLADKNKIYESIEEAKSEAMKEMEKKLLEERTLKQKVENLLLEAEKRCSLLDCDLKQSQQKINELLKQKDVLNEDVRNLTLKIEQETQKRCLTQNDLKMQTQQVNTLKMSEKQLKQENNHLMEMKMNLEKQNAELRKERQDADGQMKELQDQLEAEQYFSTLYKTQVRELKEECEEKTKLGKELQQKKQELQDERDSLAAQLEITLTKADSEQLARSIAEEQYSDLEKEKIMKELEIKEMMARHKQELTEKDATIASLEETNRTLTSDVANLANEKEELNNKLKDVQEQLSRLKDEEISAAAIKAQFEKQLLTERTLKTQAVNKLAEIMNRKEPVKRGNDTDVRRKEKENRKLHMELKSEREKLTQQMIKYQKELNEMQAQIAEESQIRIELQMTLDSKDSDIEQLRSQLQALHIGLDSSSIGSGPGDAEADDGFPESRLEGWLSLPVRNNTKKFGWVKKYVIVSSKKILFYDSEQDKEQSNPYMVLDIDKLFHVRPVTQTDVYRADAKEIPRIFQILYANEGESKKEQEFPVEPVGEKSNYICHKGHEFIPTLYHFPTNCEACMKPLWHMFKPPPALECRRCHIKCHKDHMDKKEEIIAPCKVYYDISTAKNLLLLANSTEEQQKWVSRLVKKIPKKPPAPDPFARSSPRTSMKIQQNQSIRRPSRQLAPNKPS

SMILES | IC50 [µM]
Cc1ccc([N+](=O)[O-])c(C(=O)NCc2nc(-c3c[nH]c4ncccc34)n[nH]2)c1 | > 5
O=C(NCc1nc(-c2c[nH]c3ncccc23)n[nH]1)c1ccc(-c2ccc(O)cc2)cc1 | > 5
O=C(NCc1nc(-c2ccncc2)n[nH]1)c1c2ccccc2cc2ccccc12 | > 5
O=C(NCc1nc(-c2c[nH]c3ncccc23)n[nH]1)c1ccncc1 | > 5
Cc1ccc(C(=O)NCc2nc(-c3c[nH]c4ncccc34)n[nH]2)cc1Br | > 5
O=C(NCc1nc(-c2c[nH]c3ncccc23)n[nH]1)c1cc2cc(Cl)ccc2o1 | > 5
COc1ccc([N+](=O)[O-])c(C(=O)NCc2nc(-c3c[nH]c4ncccc34)n[nH]2)c1 | > 5
O=C(NCc1nc(-c2ccncc2)n[nH]1)c1ccnc(Cl)c1 | > 5
Cc1ccc(C(=O)NCc2nc(-c3c[nH]c4ncccc34)n[nH]2)cc1F | > 5
O=C(Cc1ccc(Br)cc1)NCc1nc(-c2c[nH]c3ncccc23)n[nH]1 | > 5
O=C(NCc1nc(-c2c[nH]c3ncccc23)n[nH]1)C1=C(O)CC=CC([N+](=O)[O-])=C1 | > 5
COc1ccc(Br)c(C(=O)NCc2nc(-c3ccncc3)n[nH]2)c1 | > 5
CCC(=O)C(=O)NCc1nc(-c2ccncc2)n[nH]1 | > 5
O=C(NCc1nc(-c2ccncc2)n[nH]1)c1ccc(F)cc1 | > 5
Cc1cc(C(=O)NCc2nc(-c3c[nH]c4ncccc34)n[nH]2)n[nH]1 | > 5
O=C(NCc1nc(-c2ccncc2)n[nH]1)c1cc(O)c(O)c(O)c1 | > 5
CC(=O)c1ccc(C(=O)NCc2nc(-c3ccncc3)n[nH]2)cc1 | ≤ 5
O=C(NCc1nc(-c2ccncc2)n[nH]1)c1cccc(Cl)c1Cl | > 5
COc1cc(OC)c(C(=O)NCc2nc(-c3c[nH]c4ncccc34)n[nH]2)c(OC)c1 | > 5
O=C(NCc1nc(-c2ccncc2)n[nH]1)c1cc2cc(Cl)ccc2o1 | > 5
COc1ccc(C(=O)NCc2nc(-c3c[nH]c4ncccc34)n[nH]2)cc1 | > 5
CC(C)c1cc(C(=O)NCc2nc(-c3ccncc3)n[nH]2)c(O)c(C(C)C)c1 | > 5

SMILES | IC50 [µM]
CC(NC(=O)c1cccs1)c1nc(-c2ccncc2)n[nH]1 (configuration not stated) | ≤ 5
COc1cccc(C(=O)NCc2nc(-c3ccncc3)no2)c1 | > 5
O=C(NCc1nc(-c2c[nH]c3ncccc23)n[nH]1)c1ccncc1Cl | > 5
CCN(CC)c1ccc(C(=O)NCc2nc(-c3c[nH]c4ncccc34)n[nH]2)cc1 | > 5
O=C(NCc1nc(-c2ccncc2)n[nH]1)c1cccnc1 | > 5
O=C(NCc1nc(-c2c[nH]c3ncccc23)n[nH]1)C(Cl)(Cl)Cl | > 5
O=C(CCc1cccc(Br)c1)NCc1nc(-c2ccncc2)n[nH]1 | > 5
CC(=O)NC(Cc1ccc(O)cc1)C(=O)NCc1nc(-c2ccncc2)n[nH]1 (configuration not stated) | > 5
O=C(NCc1nc(-c2ccncc2)n[nH]1)c1ccccc1C(=O)c1ccc(F)cc1 | > 5
COc1ccc2cc(C(C)C(=O)NCc3nc(-c4c[nH]c5ncccc45)n[nH]3)ccc2c1 (configuration not stated) | > 5
COc1ccc(C(=O)NCc2nc(-c3c[nH]c4ncccc34)n[nH]2)c(OC)c1 | > 5
Cc1cc(C(=O)NCc2nc(-c3c[nH]c4ncccc34)n[nH]2)cc(Cl)n1 | > 5
CCCCOc1ccc(C(=O)NCc2nc(-c3c[nH]c4ncccc34)n[nH]2)cc1 | > 5
O=C(NCc1nc(-c2ccncc2)n[nH]1)c1ccc(Cl)cc1O | > 5
O=C(NCc1nc(-c2c[nH]c3ncccc23)n[nH]1)c1ccccc1[N+](=O)[O-] | > 5
O=C(NCc1nc(-c2ccncc2)n[nH]1)C(F)(F)F | > 5
O=C(NCc1nc(-c2c[nH]c3ncccc23)n[nH]1)c1ccc(Cl)c(Br)c1 | > 5
COc1cccc(O)c1C(=O)NCc1nc(-c2ccncc2)n[nH]1 | ≤ 5
N#CCC(=O)NCc1nc(-c2c[nH]c3ncccc23)n[nH]1 | > 5
Cc1c(O)ccc(C(=O)NCc2nc(-c3ccncc3)n[nH]2)c1O | ≤ 5
O=C(C=Cc1ccccc1F)NCc1nc(-c2c[nH]c3ncccc23)n[nH]1 | > 5
Cc1cccc(C(=O)NCc2nc(-c3c[nH]c4ncccc34)n[nH]2)c1C | > 5

SMILES | IC50 [µM]
O=C(CCc1ccccc1O)NCc1nc(-c2c[nH]c3ncccc23)n[nH]1 | > 5
COc1ccc([N+](=O)[O-])c(C(=O)NCc2nc(-c3ccncc3)n[nH]2)c1 | > 5
COc1cccc(OC)c1C(=O)NCc1nc(-c2c[nH]c3ncccc23)n[nH]1 | > 5
O=C(NCc1nc(-c2c[nH]c3ncccc23)n[nH]1)c1cc(O)c(O)c(O)c1 | > 5
Cc1ccccc1CCC(=O)NCc1nc(-c2c[nH]c3ncccc23)n[nH]1 | > 5
O=C(c1cccs1)N1CCn2nc(-c3ccncc3)nc2C1 | > 5
CC(=O)Oc1cccc(C(=O)NCc2nc(-c3ccncc3)n[nH]2)c1 | > 5
O=C(NCc1nc(-c2c[nH]c3ncccc23)n[nH]1)c1ccc(F)cc1Cl | > 5
O=C(NCc1nc(-c2c[nH]c3ncccc23)n[nH]1)c1cc(F)cc(F)c1 | > 5
O=C(NCc1nc(-c2c[nH]c3ncccc23)n[nH]1)c1ccc(Cl)cc1O | > 5
O=C(NCc1nc(-c2ccncc2)n[nH]1)c1ccc(Oc2ccccc2)cc1 | ≤ 5
CCCc1ccc(C(=O)NCc2nc(-c3c[nH]c4ncccc34)n[nH]2)cc1 | > 5
Cc1ccccc1C(=O)NCc1nc(-c2c[nH]c3ncccc23)n[nH]1 | > 5
O=C(NCc1nc(-c2c[nH]c3ncccc23)n[nH]1)c1cccc(Br)n1 | > 5
CC(C)(C)C(=O)Oc1ccc(C(=O)NCc2nc(-c3ccncc3)n[nH]2)c(OC(=O)C(C)(C)C)c1 | > 5
CC(C)c1cc(C(=O)NCc2nc(-c3c[nH]c4ncccc34)n[nH]2)c(O)c(C(C)C)c1 | > 5
O=C(NCc1nc(-c2ccncc2)n[nH]1)c1ccc(Oc2cccc(O)c2)cc1 | ≤ 5
Cc1cccc([N+](=O)[O-])c1C(=O)NCc1nc(-c2c[nH]c3ncccc23)n[nH]1 | > 5
CC(=O)c1cccc(C(=O)NCc2nc(-c3c[nH]c4ncccc34)n[nH]2)c1 | > 5
O=C(C=Cc1ccccc1Cl)NCc1nc(-c2ccncc2)n[nH]1 | > 5
Cc1c(Cl)ccc(S(=O)(=O)NCc2nc(-c3ccncc3)n[nH]2)c1O | > 5
CC(NC(=O)OC(C)(C)C)C(=O)NCc1nc(-c2c[nH]c3ncccc23)n[nH]1 (configuration not stated) | > 5

SMILES | IC50 [µM]
CC(C(=O)NCc1nc(-c2ccncc2)n[nH]1)c1ccc(-c2ccccc2)c(F)c1 (configuration not stated) | > 5
O=Cc1ccccc1C(=O)NCc1nc(-c2ccncc2)n[nH]1 | > 5
O=C(NCc1nc(-c2ccncc2)n[nH]1)c1ccc2ccccc2c1O | ≤ 5
CN(Cc1nc(-c2ccncc2)n[nH]1)C(=O)c1cccs1 | > 5
O=C(NCc1nc(-c2ccncc2)n[nH]1)C1=CCCC1 | > 5
O=C(NCc1nc(-c2c[nH]c3ncccc23)n[nH]1)c1cccnc1 | > 5
O=C(Cc1ccc2c(c1)OCO2)NCc1nc(-c2ccncc2)n[nH]1 | > 5
CC(C)(C)OC(=O)N1CC(O)CC1C(=O)NCc1nc(-c2c[nH]c3ncccc23)n[nH]1 (configuration not stated) | > 5
O=C(NCc1nc(-c2ccncc2)n[nH]1)c1ccc(O)cc1O | ≤ 5
Cc1ccccc1C(=O)NCc1nc(-c2ccncc2)n[nH]1 | > 5
Cc1ccccc1CCC(=O)NCc1nc(-c2ccncc2)n[nH]1 | > 5
O=C(C=Cc1cccc(O)c1)NCc1nc(-c2ccncc2)n[nH]1 | > 5
O=C(NCc1nc(-c2c[nH]c3ncccc23)n[nH]1)c1cc(Br)ccc1Cl | > 5
O=S(=O)(NCc1nc(-c2ccncc2)n[nH]1)c1ccc(OCc2ccccc2)cc1 | > 5
CC(=O)Oc1ccc(C(=O)NCc2nc(-c3ccncc3)n[nH]2)cc1 | ≤ 5
O=C(NCc1nc(-c2c[nH]c3ncccc23)n[nH]1)C(F)(F)F | > 5
NC1CCN(C(=O)Cc2nc(-c3ccncc3)n[nH]2)C1 (configuration not stated) | > 5
CC(=O)Nc1cccc(C(=O)NCc2nc(-c3c[nH]c4ncccc34)n[nH]2)c1 | > 5
CC(=O)Oc1ccc(C(=O)NCc2nc(-c3ccncc3)n[nH]2)c(O)c1 | ≤ 5
O=C(C=Cc1ccc2c(c1)OCO2)NCc1nc(-c2ccncc2)n[nH]1 | > 5
O=C(NCc1nc(-c2ccncc2)n[nH]1)c1ccccc1OCc1ccccc1 | > 5
CC(C)c1ccc(C(=O)NCc2nc(-c3ccncc3)n[nH]2)cc1 | > 5

SMILES | IC50 [µM]
O=C(C=Cc1ccccc1C(F)(F)F)NCc1nc(-c2ccncc2)n[nH]1 | > 5
O=C(NCc1nc(-c2c[nH]c3ncccc23)n[nH]1)c1cccc([N+](=O)[O-])c1 | > 5
O=C(NCc1nc(-c2ccncc2)n[nH]1)c1cnc[nH]1 | > 5
CC(C)C(NC(=O)OC(C)(C)C)C(=O)NCc1nc(-c2c[nH]c3ncccc23)n[nH]1 (configuration not stated) | > 5
O=C(NCc1nc(-c2ccncc2)n[nH]1)c1ncc[nH]1 | > 5
COc1cc(C(=O)NCc2nc(-c3c[nH]c4ncccc34)n[nH]2)cc(OC)c1O | > 5
Cc1cccc(C(=O)NCc2nc(-c3c[nH]c4ncccc34)n[nH]2)c1O | > 5
O=C(NCc1nc(-c2ccncc2)n[nH]1)c1cccc(I)c1 | > 5
COc1cc(C(=O)NCc2nc(-c3ccncc3)n[nH]2)cc(OC)c1O | > 5
CC(CC(=O)NCc1nc(-c2ccncc2)n[nH]1)CC(C)(C)C (configuration not stated) | > 5
O=C(NCc1nc(-c2ccncc2)n[nH]1)c1c(F)c(F)c(F)c(F)c1F | > 5
O=C(C=Cc1ccccc1Cl)NCc1nc(-c2c[nH]c3ncccc23)n[nH]1 | > 5
CC(C(=O)NCc1nc(-c2ccncc2)n[nH]1)c1cccc(C(=O)c2ccccc2)c1 (configuration not stated) | > 5
Cc1ccc(C(=O)NCc2nc(-c3ccncc3)n[nH]2)cc1F | > 5
COc1cc(OC)c(C(=O)NCc2nc(-c3ccncc3)n[nH]2)c(OC)c1 | > 5
O=C(NCc1nc(-c2ccncc2)n[nH]1)c1ccc2ncccc2c1 | > 5
O=C(NCc1nc(-c2c[nH]c3ncccc23)n[nH]1)c1ccccc1Cl | > 5
Cc1ccc(C(=O)NCc2nc(-c3ccncc3)n[nH]2)cc1 | > 5
O=C(NCc1nc(-c2c[nH]c3ncccc23)n[nH]1)c1cc(F)c(F)cc1Cl | > 5
